Results taken from the OligoGym collection.
HELM strings list units from the 5' end as sugar, base in round brackets, then linkage (d deoxyribose, r ribose, m 2'-O-methyl, p phosphodiester). Strings are as the collection lists them; they lack the last nucleoside at the 3' end of the tested compound. [moe] = 2'-O-(2-methoxyethyl) (MOE); [sp] = phosphorothioate linkage; [m5C] = 5-methylcytosine

Each substance was assayed against PRNP (assay: mouse, dose not given). Details: ASO.

| Substance | 3 h FOB score [score 0-7] |
| --- | --- |
| RNA1{[moe](G)[sp].[moe]([m5C])p.[moe](T)p.[moe](A)p.[moe](T)[sp].d(G)[sp].d(A)[sp].d(A)[sp].d(A)[sp].d(T)[sp].d([m5C])[sp].d(T)[sp].d([m5C])[sp].d(T)[sp].d(A)[sp].[moe]([m5C])p.[moe](T)p.[moe](A)[sp].[moe](A)}$$$$ (last 3' nucleoside missing) | 2.5 |
| RNA1{[moe](G)[sp].[moe]([m5C])p.[moe](T)p.[moe](A)p.[moe](T)[sp].d([m5C])[sp].d(T)[sp].d(T)[sp].d(T)[sp].d([m5C])[sp].d(T)[sp].d(A)[sp].d(T)[sp].d(T)[sp].d(T)[sp].[moe](G)p.[moe](T)p.[moe](G)[sp].[moe](T)}$$$$ (last 3' nucleoside missing) | 1 |
| RNA1{[moe](G)[sp].[moe]([m5C])p.[moe](T)p.[moe](T)p.[moe](A)[sp].d(A)[sp].d(T)[sp].d(T)[sp].d(A)[sp].d(G)[sp].d(T)[sp].d(T)[sp].d(A)[sp].d([m5C])[sp].d(A)[sp].[moe](T)p.[moe]([m5C])p.[moe](G)[sp].[moe](G)}$$$$ (last 3' nucleoside missing) | 4.5 |
| RNA1{[moe](G)[sp].[moe]([m5C])p.[moe](T)p.[moe](T)p.[moe](A)[sp].d(T)[sp].d(T)[sp].d(A)[sp].d(T)[sp].d(T)[sp].d([m5C])[sp].d(A)[sp].d(T)[sp].d(G)[sp].d(T)[sp].[moe](T)p.[moe]([m5C])p.[moe](T)[sp].[moe]([m5C])}$$$$ (last 3' nucleoside missing) | 3.5 |
| RNA1{[moe](G)[sp].[moe]([m5C])p.[moe](T)p.[moe](T)p.[moe](A)[sp].d([m5C])[sp].d(T)[sp].d([m5C])[sp].d(G)[sp].d(G)[sp].d([m5C])[sp].d(T)[sp].d(T)[sp].d(G)[sp].d(T)[sp].[moe](T)p.[moe]([m5C])p.[moe]([m5C])[sp].[moe](A)}$$$$ (last 3' nucleoside missing) | 5.25 |
| RNA1{[moe](G)[sp].[moe]([m5C])p.[moe](T)p.[moe](T)p.[moe](A)p.[moe](T)p.d(T)[sp].d(A)[sp].d(T)[sp].d(T)[sp].d([m5C])[sp].d(A)[sp].d(T)[sp].d(G)[sp].d(T)[sp].d(T)[sp].[moe]([m5C])p.[moe](T)[sp].[moe]([m5C])}$$$$ (last 3' nucleoside missing) | 1.75 |
| RNA1{[moe](G)[sp].[moe]([m5C])p.[moe](T)p.[moe](T)p.[moe](A)p.[moe]([m5C])p.d(T)[sp].d([m5C])[sp].d(G)[sp].d(G)[sp].d([m5C])[sp].d(T)[sp].d(T)[sp].d(G)[sp].d(T)[sp].d(T)[sp].[moe]([m5C])p.[moe]([m5C])[sp].[moe](A)}$$$$ (last 3' nucleoside missing) | 0.75 |
| RNA1{[moe](G)[sp].[moe]([m5C])p.[moe](T)p.[moe](T)p.[moe](A)p.d(T)[sp].d(T)[sp].d(A)[sp].d(T)[sp].d(T)[sp].d([m5C])[sp].d(A)[sp].d(T)[sp].d(G)[sp].[moe](T)[sp].[moe](T)p.[moe]([m5C])p.[moe](T)}$$$$ (last 3' nucleoside missing) | 1 |
| RNA1{[moe](G)[sp].[moe]([m5C])p.[moe](T)p.[moe](T)p.[moe](A)p.d([m5C])[sp].d(T)[sp].d([m5C])[sp].d(G)[sp].d(G)[sp].d([m5C])[sp].d(T)[sp].d(T)[sp].d(G)[sp].[moe](T)[sp].[moe](T)p.[moe]([m5C])p.[moe]([m5C])}$$$$ (last 3' nucleoside missing) | 4.5 |
| RNA1{[moe](G)[sp].[moe]([m5C])p.[moe](T)p.[moe](T)p.[moe](T)[sp].d(G)[sp].d(G)[sp].d(A)[sp].d(T)[sp].d([m5C])[sp].d(T)[sp].d([m5C])[sp].d(T)[sp].d(T)[sp].d(A)[sp].[moe](G)p.[moe](A)p.[moe](T)[sp].[moe](T)}$$$$ (last 3' nucleoside missing) | 0 |
| RNA1{[moe](G)[sp].[moe]([m5C])p.[moe](T)p.[moe](T)p.[moe]([m5C])[sp].d(T)[sp].d([m5C])[sp].d(A)[sp].d(A)[sp].d(T)[sp].d(T)[sp].d(T)[sp].d(T)[sp].d(T)[sp].d([m5C])[sp].[moe]([m5C])p.[moe](A)p.[moe](A)[sp].[moe]([m5C])}$$$$ (last 3' nucleoside missing) | 0 |
| RNA1{[moe](G)[sp].[moe]([m5C])p.[moe](T)p.[moe](T)p.d(A)[sp].d(T)[sp].d(T)[sp].d(A)[sp].d(T)[sp].d(T)[sp].d([m5C])[sp].d(A)[sp].d(T)[sp].d(G)[sp].[moe](T)p.[moe](T)p.[moe]([m5C])p.[moe](T)[sp].[moe]([m5C])}$$$$ (last 3' nucleoside missing) | 1 |
| RNA1{[moe](G)[sp].[moe]([m5C])p.[moe](T)p.[moe](T)p.d(A)[sp].d([m5C])[sp].d(T)[sp].d([m5C])[sp].d(G)[sp].d(G)[sp].d([m5C])[sp].d(T)[sp].d(T)[sp].d(G)[sp].[moe](T)p.[moe](T)p.[moe]([m5C])p.[moe]([m5C])[sp].[moe](A)}$$$$ (last 3' nucleoside missing) | 3.25 |
| RNA1{[moe](G)[sp].[moe]([m5C])p.[moe](T)p.[moe]([m5C])p.[moe](T)[sp].d(A)[sp].d(T)[sp].d(T)[sp].d(A)[sp].d(A)[sp].d(T)[sp].d(A)[sp].d(G)[sp].d(G)[sp].d(T)[sp].[moe](T)p.[moe](A)p.[moe](G)[sp].[moe](G)}$$$$ (last 3' nucleoside missing) | 4.25 |
| RNA1{[moe](G)[sp].[moe]([m5C])p.[moe]([m5C])p.[moe](A)p.[moe](A)[sp].d(G)[sp].d(G)[sp].d(G)[sp].d(T)[sp].d(A)[sp].d(T)[sp].d(T)[sp].d(G)[sp].d(A)[sp].d(T)[sp].[moe](T)p.[moe](A)p.[moe](G)[sp].[moe]([m5C])}$$$$ (last 3' nucleoside missing) | 3.5 |
| RNA1{[moe](G)[sp].[moe]([m5C])p.[moe]([m5C])p.[moe](A)p.[moe](A)[sp].d(T)[sp].d(A)[sp].d(A)[sp].d(T)[sp].d(A)[sp].d(A)[sp].d([m5C])[sp].d(A)[sp].d(T)[sp].d(T)[sp].[moe](G)p.[moe]([m5C])p.[moe](A)[sp].[moe](G)}$$$$ (last 3' nucleoside missing) | 0 |
| RNA1{[moe](G)[sp].[moe]([m5C])p.[moe]([m5C])p.[moe](A)p.[moe]([m5C])[sp].d(A)[sp].d(T)[sp].d(A)[sp].d(T)[sp].d(A)[sp].d(G)[sp].d(G)[sp].d(G)[sp].d(T)[sp].d([m5C])[sp].[moe]([m5C])p.[moe](T)p.[moe](T)[sp].[moe](T)}$$$$ (last 3' nucleoside missing) | 1.5 |
| RNA1{[moe](G)[sp].[moe]([m5C])p.[moe]([m5C])p.[moe](A)p.[moe]([m5C])p.[moe](A)p.d(T)[sp].d(A)[sp].d(T)[sp].d(A)[sp].d(G)[sp].d(G)[sp].d(G)[sp].d(T)[sp].d([m5C])[sp].d([m5C])[sp].[moe](T)p.[moe](T)[sp].[moe](T)}$$$$ (last 3' nucleoside missing) | 4 |
| RNA1{[moe](G)[sp].[moe]([m5C])p.[moe]([m5C])p.[moe](A)p.d([m5C])[sp].d(A)[sp].d(T)[sp].d(A)[sp].d(T)[sp].d(A)[sp].d(G)[sp].d(G)[sp].d(G)[sp].d(T)[sp].[moe]([m5C])p.[moe]([m5C])p.[moe](T)p.[moe](T)[sp].[moe](T)}$$$$ (last 3' nucleoside missing) | 3.75 |
| RNA1{[moe](G)[sp].[moe]([m5C])p.[moe]([m5C])p.[moe](T)p.[moe](T)[sp].d(A)[sp].d(A)[sp].d(T)[sp].d(T)[sp].d(A)[sp].d([m5C])[sp].d([m5C])[sp].d(T)[sp].d(A)[sp].d(T)[sp].[moe](A)p.[moe](G)p.[moe](T)[sp].[moe](T)}$$$$ (last 3' nucleoside missing) | 1 |
| RNA1{[moe](T)[sp].[moe](A)p.[moe](G)p.[moe](G)p.[moe]([m5C])[sp].d(T)[sp].d([m5C])[sp].d(T)[sp].d(T)[sp].d(T)[sp].d(T)[sp].d([m5C])[sp].d([m5C])[sp].d(A)[sp].d(G)[sp].[moe](G)p.[moe](T)p.[moe](G)[sp].[moe](T)}$$$$ (last 3' nucleoside missing) | 1 |
| RNA1{[moe](T)[sp].[moe](A)p.[moe](T)p.[moe](G)p.[moe](T)p.d(T)[sp].d(T)[sp].d(T)[sp].d([m5C])[sp].d([m5C])[sp].d(A)[sp].d(G)[sp].d(T)[sp].d(G)[sp].[moe]([m5C])p.[moe]([m5C])p.[moe]([m5C])[sp].[moe](A)}$$$$ (last 3' nucleoside missing) | 5.25 |
| RNA1{[moe](T)[sp].[moe](A)p.[moe]([m5C])p.[moe](T)p.[moe](T)[sp].d(G)[sp].d(T)[sp].d([m5C])[sp].d(A)[sp].d(G)[sp].d(T)[sp].d(T)[sp].d(T)[sp].d(T)[sp].d(T)[sp].[moe]([m5C])p.[moe]([m5C])p.[moe]([m5C])[sp].[moe]([m5C])}$$$$ (last 3' nucleoside missing) | 4.5 |
| RNA1{[moe](T)[sp].[moe](A)p.[moe]([m5C])p.[moe](T)p.[moe]([m5C])[sp].d(T)[sp].d(A)[sp].d(T)[sp].d(G)[sp].d(T)[sp].d(T)[sp].d(T)[sp].d(T)[sp].d([m5C])[sp].d([m5C])[sp].[moe](A)p.[moe](G)p.[moe](T)[sp].[moe](G)}$$$$ (last 3' nucleoside missing) | 1.75 |
| RNA1{[moe](T)[sp].[moe](G)p.[moe](G)p.[moe](A)p.[moe](A)[sp].d(G)[sp].d(A)[sp].d([m5C])[sp].d(T)[sp].d(T)[sp].d(G)[sp].d(T)[sp].d(G)[sp].d(T)[sp].d(T)[sp].[moe](A)p.[moe](G)p.[moe](A)[sp].[moe](T)}$$$$ (last 3' nucleoside missing) | 6.5 |
| RNA1{[moe](T)[sp].[moe](G)p.[moe](G)p.[moe](G)p.[moe](A)[sp].d(G)[sp].d(T)[sp].d(A)[sp].d(T)[sp].d([m5C])[sp].d(A)[sp].d(A)[sp].d(T)[sp].d(T)[sp].d(T)[sp].[moe](A)p.[moe](A)p.[moe](G)[sp].[moe]([m5C])}$$$$ (last 3' nucleoside missing) | 0 |
